These results are taken from ChEMBL document CHEMBL5241099, “Targeting mutated GTPase KRAS in tumor therapies” (Eur J Med Chem, 2021).

The test system of assay [1] is HT-1080. The assay is described as follows: Cytotoxicity against human HT-1080 cells harboring NRAS Q61K mutant assessed as inhibition of cell growth incubated for 72 hrs by celltiter-glo luminescent cell viability assay. The assay is classed as functional, cell-based. The following applies: HT-1080, 72 h.
The nature of assay [2]: Inhibition of Ras GTPase activation in HEK293T cells. Format: cell-based, Homo sapiens.
The nature of assay [3]: Inhibition of SOS1/KRAS (unknown origin) protein-protein interaction. Further details: species or system Homo sapiens.
Assay [4] has as its system SW480. The assay can be described thus: Antitumor activity against human SW480 cells xenografted in athymic nude mouse assessed as inhibition of tumor growth at 80 mg/kg, po administered 5 days a week for 17 to 20 days relative to control. The assay is classed as functional. The following applies: time 17-20 day.
The test system of assay [5] is NIH3T3. The assay can be described thus: Antiproliferative activity against mouse NIH3T3 cells transfected with HRAS G12V mutant assessed as inhibition of cell growth incubated for 14 days by dissecting microscope based colony counting assay. The assay is classed as functional. The following applies: NIH3T3, 336 h.
Assay [6] addresses GTPase HRas (Homo sapiens, UniProt P01112). The assay is described as follows: Inhibition of GST-tagged HRAS (1 to 166 residues) (unknown origin) assessed as inhibition of mSOS1 mediated nucleotide exchange by [35S]GTPgammaS based liquid scintillation counting method.
The nature of assay [7]: Inhibition of ERK phosphorylation in human NCI-H358 cells. Format: cell-based.
In assay [8] the test system is GTPase KRas (Homo sapiens), P01116 [G12C]. The assay can be described thus: Binding affinity to KRAS G12C mutant (unknown origin) assessed as covalent bond formation by measuring Kobs/[I] ratio.
Assay [9] is described as follows: Inhibition of ERK phosphorylation in human MIA PaCa-2 cells. Format: cell-based.
In assay [10] the target is GTPase KRas (Homo sapiens, UniProt P01116, G12C). The assay can be described thus: Inhibition of KRAS G12C mutant in human NCI-H358 cells incubated for 6 hrs by LC-MS/MS analysis. Format: cell-based.
In assay [11] the target is GTPase KRas (Homo sapiens, UniProt P01116, G12V). The assay is described as follows: Binding affinity to GppNHp-tagged KRAS G12V mutant (unknown origin).

Each structure is given as a SMILES string. pEC50, pIC50, pKd: −log10 of the molar value.

Consider `COc1nc(-c2cccc3c2OCCO3)ccc1Nc1ccc(CN(C)C)cc1`, for which the pIC50 in assay [1] was 5.00.
Compound `Cc1[nH]c2cc(Cl)cc(Cl)c2c1CCN` gave a pEC50 in assay [2] of 4.80.
Take `COc1cc2nc(C)nc(N[C@H](C)c3cc(N)cc(C(F)(F)F)c3)c2cc1O[C@H]1CCOC1`: the pIC50 in [3] was 8.30.
As to `Cc1ccc(NC(=S)NNc2c([N+](=O)[O-])cc(C(F)(F)F)cc2[N+](=O)[O-])cc1Cl`, the inhibition in vivo at 80 mg/kg in [4] was determined as 40%. Also, the pIC50 is 6.30 in assay [5] and 4.70 in assay [6].
`COc1cc2ncnc(N[C@H](C)c3ccccc3)c2cc1OC`: the pIC50 in assay [3] was 5.80.
In assay [7], `C=CC(=O)N1CCN(c2ncnc3c2CCN(c2cc(O)cc4ccccc24)C3)CC1` gave a pIC50 of 5.12.
`C=CC(=O)N1CC(NC(=O)COc2ccc(Br)cc2NC(=O)c2cc(C)no2)C1`: the Ratio in [8] came to 2 M⁻¹ s⁻¹.
In the case of `C=CC(=O)N1CCN(c2nc(=O)n(-c3c(C)ccnc3C(C)C)c3nc(-c4c(O)cccc4F)c(F)cc23)[C@@H](C)C1` [SOTORASIB], the pIC50 in [9] was 7.17.
In the case of `C=CC(=O)N1CC(N2CCN(C(=O)CNc3cc(Cl)c(Cl)cc3O)CC2)C1`, the pIC50 in assay [10] is 4.30.
In the case of `C=CC(=O)N1CC(NC(=O)Cn2cc(C(=O)N3CCc4c(cccc4OC)C3)c3cc(Br)ccc32)C1`, the Ratio in assay [8] was 230 M⁻¹ s⁻¹.
`C=CC(=O)N1CCN(C(=O)CNc2cc(I)c(Cl)cc2O)CC1`: the pIC50 in assay [10] is 4.00.
With `O=[N+]([O-])c1cc(C(F)(F)F)cc([N+](=O)[O-])c1NNC(=S)Nc1ccc(F)cc1`, the pIC50 was 5.85 in [5] and 4.00 in [6].
On to `O=C(NCC1COc2ccccc2O1)c1ccco1` (stereo unspecified), for which the pKd in assay [11] is 3.63.
